Test results reported in publication PMC9977398, “Next-generation membrane-active glycopeptide antibiotics that also inhibit bacterial cell division” (Chemical Science, 2023).
≈ marks a conversion by molar mass, not a printed value. Read-outs that look alike come from different tables or passages of the source.

What was measured:
VRE = experiment: MIC against VRE (strains taken together); format: cell-based; conditions: ratio of MICs
Procedure: The increase in the carbon content of substituted moieties from six (1) to seven (2 and 3) to ten (5) to twelve (4), increased activity.
VanQAmC14 (10): Yield 65%; HPLC purity 96%; 1H-NMR (400 MHz, DMSO-d6) δ/ppm:
(§1) Test compound was assayed in a micro -dilution broth format as per the CLSI guideline. The bacterial freeze dried stock samples were stored at -80 °C. About 5 μL of these stocks were added to 3 mL of the respective broth and the culture was grown for 6 h at 37°C with prior to the experiments. This 6 h grown culture was diluted to give effective cell concentration of 10 5 CFU/mL which was then used for determining MIC. Compounds were serially diluted 2 -fold, in sterile millipore water and 50 μL of these serial dilutions were added to the wells of 96 well plate followed by the addition of about 150 μL of bacterial solution. The plates were then incubated for 18-24 h at 37 °C. The O.D. value at 600 nm was recorded using TECAN (Infinite series, M200 pro) Plate Reade r. Each concentration had triplicate values and the whole experiment was done at least twice and the MIC value was determined by taking the average of triplicate O. D. values for each concentration and plotting it against concentration. The data was then subjected to sigmoidal fitting. From the curve the MIC value was determined, as the point where the O. D. was similar to that of control having no bacteria.

VRSA = experiment: Time-kill kinetics against VRSA; format: cell-based, S. aureus
wild-type E. coli = experiment: Light microscopy of wild-type E. coli (lysis); format: cell-based; conditions: VanQAmC10 25 μM, vancomycin 34 μM (Fig. 5A)
Procedure: Over 240 minutes, E. coli treated with VanQAmC10 (at 25 μM), gradually grow bulky before finally lysing (ESI Video ^†). It punctured the cell, causing the cytoplasm to leak out as extrusions on the surface of the bacteria after which the cells flattened and disintegrated.
Fig. 5 Examination of E. coli cells treated with vancomycin, cephalexin and VanQAmC10 to study the effect on bacterial membrane integrity and cell division. (A) Light microscopy of wild-type E. coli upon treatment with vancomycin (34 μM), and VanQAmC10 (25 μM); (B) light and fluorescence microscopy in GFP-FtsZ expressing E. coli to assess morphological changes and localization of FtsZ post-treatment with VanQAmC10 (15 μM) for 40 min; (C) delocalization of GFP-FtsI in GFP-FtsI expressing E. coli through fluorescence microscopy and morphological changes through light microscopy upon treatment with vancomycin (34 μM), cephalexin (22 μM) and VanQAmC10 (10 μM); (D) light microscopy to assess morphological changes in E. coli MG1655 ΔamiAC mutant, when untreated and treated with vancomycin (3 μM) and VanQAmC10 (2 μM). Black arrows indicate morphological aberrations.

[1] = test system: VRE 51559 (vancomycin-resistant E. faecium, VanA phenotype, ATCC 51559); experiment: MIC determination, micro-dilution broth; format: cell-based
Procedure: (§2) The increase in the carbon content of substituted moieties from six (1) to seven (2 and 3) to ten (5) to twelve (4), increased activity. […]
as §1

[2] = test system: VRE 51575 (vancomycin-resistant E. faecalis, VanB phenotype, ATCC 51575); experiment: MIC determination, micro-dilution broth; format: cell-based
Procedure: as §2, §1

[3] = test system: VRSA 1 (vancomycin-resistant S. aureus); experiment: MIC determination, micro-dilution broth; format: cell-based; conditions: Staphylococcus aureus, read-out: Minimum inhibitory concentration, VRSA 1
Procedure: as §2, §1

[4] = test system: VRSA 12 (vancomycin-resistant S. aureus); experiment: MIC determination, micro-dilution broth; format: cell-based; conditions: Staphylococcus aureus, read-out: Minimum inhibitory concentration, VRSA 12
Procedure: as §2, §1

[5] = test system: VRSA 4 (vancomycin-resistant S. aureus); experiment: MIC determination, micro-dilution broth; format: cell-based; conditions: Staphylococcus aureus, read-out: Minimum inhibitory concentration, VRSA 4
Procedure: as §2, §1

Row | Structure (SMILES) | fold enhancement in activity as compared to vancomycin against VRE (VRE) | increase in bacterial titer between 6 h and 24 h (VRSA; VRSA, 2×MIC, after initial reduction) [log CFU mL^−1] | time to complete eradication (VRSA; VRSA, 6×MIC) [h] | reduction of bacterial titer (VRSA; VRSA, at MIC, 24 h) [log CFU mL^−1] | effect on E. coli cells (microscopy) (wild-type E. coli) | MIC ([1]; Enterococcus, read-out: Minimum inhibitory concentration, VRE 51559) [µM] | MIC ([2]; Enterococcus, read-out: Minimum inhibitory concentration, VRE 51575) [µM] | MIC [3] [µM] | MIC [4] [µM] | MIC [5] [µM] | effect on growth of VRSA (VRSA; 20 μM (sub-MIC)) | MIC ([1]; Enterococcus; read-out: Minimum inhibitory concentration, VRE 51559) [µM] | MIC ([2]; Enterococcus; read-out: Minimum inhibitory concentration, VRE 51575) [µM]
1 | CCCCCCCCCCNC(=O)C[N+](C)(C)CCCNC(=O)C1NC(=O)C2NC(=O)C(NC(=O)C3NC(=O)C(CC(N)=O)NC(=O)C(NC(=O)C(CC(C)C)NC)C(O)c4ccc(c(Cl)c4)Oc4cc3cc(c4OC3OC(CO)C(O)C(O)C3OC3CC(C)(N)C(O)C(C)O3)Oc3ccc(cc3Cl)C2O)c2ccc(O)c(c2)-c2c(O)cc(O)cc21 (stereo not drawn) [VanQAmC10 (8)] | ~160 fold | 1 | 24 | 1.9 | completely lysed the cells |  |  |  |  |  |  |  | 
2 | CN[C@H](CC(C)C)C(=O)N[C@H]1C(=O)N[C@@H](CC(N)=O)C(=O)N[C@H]2C(=O)N[C@H]3C(=O)N[C@H](C(=O)N[C@H](C(=O)O)c4cc(O)cc(O)c4-c4cc3ccc4O)[C@H](O)c3ccc(c(Cl)c3)Oc3cc2cc(c3O[C@@H]2O[C@H](CO)[C@@H](O)[C@H](O)[C@H]2O[C@H]2C[C@](C)(N)[C@H](O)[C@H](C)O2)Oc2ccc(cc2Cl)[C@H]1O [Vancomycin, reference compound] |  |  |  |  | did not affect the cells | 250 (≈ 362 µg/mL) | 750 (≈ 1090 µg/mL) | 345 (≈ 500 µg/mL) | 345 (≈ 500 µg/mL) | 345 (≈ 500 µg/mL) | initial growth inhibitory effect, followed by resumption of bacterial growth |  | 
3 | CNC(CC(C)C)C(=O)NC1C(=O)NC(CC(N)=O)C(=O)NC2C(=O)NC3C(=O)NC(C(=O)NC(C(=O)NCCC[N+](C)(C)Cc4ccc(-c5ccccc5)cc4)c4cc(O)cc(O)c4-c4cc3ccc4O)C(O)c3ccc(c(Cl)c3)Oc3cc2cc(c3OC2OC(CO)C(O)C(O)C2OC2CC(C)(N)C(O)C(C)O2)Oc2ccc(cc2Cl)C1O (stereo not drawn) [VanQbiph (4)] | 40- to 60 fold |  |  |  |  |  |  | 7.8 | 15.7 | 3.9 |  | 6.1 | 12.3
